From patent publication US11058688B2, “Imidazopiperazine inhibitors of transcription activating proteins” (Board of Regents, The University of Texas System, priority 2018, dated 2021)

Tests used:
BRD4(49-170) bromodomain = BRD4(49-170) bromodomain (Homo sapiens (Human), UniProt O60885); assay: BRD4 AlphaScreen Assay; conditions: binding to biotin-H4(1-21) Ac-K5/8/12/16 peptide
How it was run: (§1)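 IC50 values derived by variable-slope dose-response fit between negative and DMSO control signals. AlphaScreen signal reports bromodomain association with an H4(1-21) peptide acetylated at K5, K8, K12 and K16.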

[1] = target: GST-CBP(1081-1197) bromodomain (Homo sapiens (Human), UniProt Q92793); assay: CBP AlphaScreen Assay; conditions: binding to biotin-H4(1-21) Ac-K5/8/12/16 peptide
Chain of GST-CBP(1081-1197) bromodomain (Q92793 1081-1197): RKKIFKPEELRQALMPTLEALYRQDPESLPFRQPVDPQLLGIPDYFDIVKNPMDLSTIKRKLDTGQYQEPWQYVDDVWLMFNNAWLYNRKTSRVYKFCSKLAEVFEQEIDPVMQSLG
How it was run: as §1

Row | Compound | IC50 (BRD4(49-170) bromodomain) | IC50 [1]
1 | CNC(=O)N1CCn2c(C3CCC(F)(F)CC3)nc(-c3cccc4cc(-c5cn(C)nc5C)ncc34)c2C1 [Example 76, 3-(4,4-difluorocyclohexyl)-1-(3-(1,3-dimethyl-1H-pyrazol-4-yl)isoquinolin-8-yl)-N-methyl-5,6-dihydroimidazo[1,5-a]pyrazine-7(8H)-carboxamide] | 11900 nM | 3 nM
2 | CNC(=O)N1CCn2c(C3CC(F)(F)C3)nc(-c3c(F)ccc4cc(-c5cnc(C)s5)ncc34)c2C1 [Example 92, 3-(3,3-difluorocyclobutyl)-1-(7-fluoro-3-(2-methylthiazol-5-yl)isoquinolin-8-yl)-N-methyl-5,6-dihydroimidazo[1,5-a]pyrazine-7(8H)-carboxamide] | > 25000 nM | 10 nM
3 | CNC(=O)N1CCn2c(C3CC(F)(F)C3)nc(-c3c(F)ccc4cc(C5CCOCC5)ncc34)c2C1 [Example 91, 3-(3,3-difluorocyclobutyl)-1-(7-fluoro-3-(tetrahydro-2H-pyran-4-yl)isoquinolin-8-yl)-N-methyl-5,6-dihydroimidazo[1,5-a]pyrazine-7(8H)-carboxamide] | 22400 nM | 48 nM
4 | CC(=O)N1CCn2c(C3CC3)nc(N3CCCc4cc(-c5cnn(Cc6ccccn6)c5)ccc43)c2C1 [Example 116, 1-(3-cyclopropyl-1-(6-(1-(pyridin-2-ylmethyl)-1H-pyrazol-4-yl)-3,4-dihydroquinolin-1(2H)-yl)-5,6-dihydroimidazo[1,5-a]pyrazin-7(8H)-yl)ethan-1-one] | > 25000 nM | 1280 nM
5 | CNC(=O)N1CCn2c(C3CC3)nc(-c3cccc4nc(-c5cnn(C)c5)c(C(F)(F)F)cc34)c2C1 [Example 62, 3-cyclopropyl-N-methyl-1-(2-(1-methyl-1H-pyrazol-4-yl)-3-(trifluoromethyl)quinolin-5-yl)-5,6-dihydroimidazo[1,5-a]pyrazine-7(8H)-carboxamide] | 13500 nM | 5 nM
6 | CNC(=O)N1CCn2c(C3CC3)nc(-c3cccc4nc(-c5cn(C)nc5C)c(C(F)(F)F)cc34)c2C1 [Example 101, 3-cyclopropyl-1-(2-(1,3-dimethyl-1H-pyrazol-4-yl)-3-(trifluoromethyl)quinolin-5-yl)-N-methyl-5,6-dihydroimidazo[1,5-a]pyrazine-7(8H)-carboxamide] | 24700 nM | 19 nM
7 | CNC(=O)N1CCn2c(C3CC(F)(F)C3)nc(-c3c(F)ccc4cc(-c5cn(C)nc5C)ncc34)c2C1 [Example 77, 3-(3,3-difluorocyclobutyl)-1-(3-(1,3-dimethyl-1H-pyrazol-4-yl)-7-fluoroisoquinolin-8-yl)-N-methyl-5,6-dihydroimidazo[1,5-a]pyrazine-7(8H)-carboxamide] | > 25000 nM | 45 nM
8 | CNC(=O)N1CCn2c(C3CC(F)(F)C3)nc(-c3cccc4cc(C5CCOCC5)ncc34)c2C1 [Example 85, 3-(3,3-difluorocyclobutyl)-N-methyl-1-(3-(tetrahydro-2H-pyran-4-yl)isoquinolin-8-yl)-5,6-dihydroimidazo[1,5-a]pyrazine-7(8H)-carboxamide] | 18100 nM | 15 nM
9 | CNC(=O)c1ccc(-c2cc3cccc(-c4nc(C5CCOCC5)n5c4CN(C(=O)NC)CC5)c3cn2)cn1 [Example 57, N-methyl-1-(3-(6-(methylcarbamoyl)pyridin-3-yl)isoquinolin-8-yl)-3-(tetrahydro-2H-pyran-4-yl)-5,6-dihydroimidazo[1,5-a]pyrazine-7(8H)-carboxamide] | 5970 nM | 1 nM
10 | CNC(=O)N1CCn2c(C3CC(F)(F)C3)nc(-c3cccc4cc(-c5cnc(C)s5)ncc34)c2C1 [Example 96, 3-(3,3-difluorocyclobutyl)-N-methyl-1-(3-(2-methylthiazol-5-yl)isoquinolin-8-yl)-5,6-dihydroimidazo[1,5-a]pyrazine-7(8H)-carboxamide] | 5540 nM | 2 nM
11 | CC(=O)N1CCn2c(N3CCOCC3)nc(-c3ccc4c(c3)c(-c3cnn(C)c3)nn4C)c2C1 [Example 16, 1-(1-(1-Methyl-3-(1-methyl-1H-pyrazol-4-yl)-1H-indazol-5-yl)-3-morpho-lino-5,6-dihydroimidazo[1,5-a]pyrazin-7(8H)-yl)ethanone] | > 25000 nM | 392 nM
12 | CNC(=O)N1CCn2c(C3CC3)nc(-c3ccc4c(c3)c(-c3cnn(C)c3)nn4C)c2C1 [Example 105, 3-cyclopropyl-N-methyl-1-(1-methyl-3-(1-methyl-1H-pyrazol-4-yl)-1H-indazol-5-yl)-5,6-dihydroimidazo[1,5-a]pyrazine-7(8H)-carboxamide] | 7530 nM | 15 nM
13 | CNC(=O)N1CCn2c(C3CCOCC3)nc(-c3c(F)ccc4cc(C5CCOCC5)ncc34)c2C1 [Example 83, 1-(7-fluoro-3-(tetrahydro-2H-pyran-4-yl)isoquinolin-8-yl)-N-methyl-3-(tetrahydro-2H-pyran-4-yl)-5,6-dihydroimidazo[1,5-a]pyrazine-7(8H)-carboxamide] | 19400 nM | 16 nM
14 | CC(=O)N1CCn2c(C3CC3)nc(N3CCCc4cc(-c5c(C)noc5C)ccc43)c2C1 [Example 111, 1-(3-cyclopropyl-1-(6-(3,5-dimethylisoxazol-4-yl)-3,4-dihydroquinolin-1(2H)-yl)-5,6-dihydroimidazo[1,5-a]pyrazin-7(8H)-yl)ethan-1-one] | 10300 nM | 1450 nM
15 | CNC(=O)N1CCn2c(C3CC3)nc(-c3c(F)ccc4cc(C5CCOCC5)ncc34)c2C1 [Example 75, 3-cyclopropyl-1-(7-fluoro-3-(tetrahydro-2H-pyran-4-yl)isoquinolin-8-yl)-N-methyl-5,6-dihydroimidazo[1,5-a]pyrazine-7(8H)-carboxamide] | > 25000 nM | 22 nM
16 | CNC(=O)N1CCn2c(C3CCOC3)nc(-c3ccc4c(c3)c(-c3cnn(C)c3)nn4C)c2C1 (stereo not drawn) [Example 6, N-Methyl-1-(1-methyl-3-(1-methyl-1H-pyrazol-4-yl)-1H-indazol-5-yl)-3-(tetrahydrofuran-3-yl)-5,6-dihydroimidazo[1,5-a]pyrazine-7(8H)-carboxamide] | 8210 nM | 24 nM
17 | CC(=O)N1CCn2c(C3CC3)nc(N3CCCc4cc(-c5ccc(C(N)=O)cc5)ccc43)c2C1 [Example 35, 4-(1-(7-Acetyl-3-cyclopropyl-5,6,7,8-tetrahydroimidazo[1,5-a]pyrazin-1-yl)-1,2,3,4-tetrahydroquinolin-6-yl)benzamide] | > 25000 nM | 79 nM
18 | CNC(=O)N1CCn2c(C3CCC(F)(F)CC3)nc(-c3cccc4cc(N5CCOCC5)ncc34)c2C1 [Example 74, 3-(4,4-difluorocyclohexyl)-N-methyl-1(3-morpholinoisoquinolin-8-yl)-5,6-dihydroimidazo[1,5-a]pyrazine-7(8H)-carboxamide] | > 25000 nM | 4 nM
19 | CNC(=O)N1CCn2c(C3CC3)nc(-c3cccc4cc(C5CCOCC5)ncc34)c2C1 [Example 21, 3-Cyclopropyl-N-methyl-1-(3-(tetrahydro-2H-pyran-4-yl)isoquinolin-8-yl)-5,6-dihydroimidazo[1,5-a]pyrazine-7(8H)-carboxamide] | > 25000 nM | 20 nM
20 | CC(=O)N1CCn2c(C3CC3)nc(N3CCCc4cc(-c5cnn(CC6CC6)c5)ccc43)c2C1 [Example 115, 1-(3-cyclopropyl-1-(6-(1-(cyclopropylmethyl)-1H-pyrazol-4-yl)-3,4-dihydroquinolin-1(2H)-yl)-5,6-dihydroimidazo[1,5-a]pyrazin-7(8H)-yl)ethan-1-one] | > 25000 nM | 679 nM
21 | CNC(=O)N1CCn2c(C3CCOCC3)nc(-c3cccc4cc(-c5cn(C)nc5C)ncc34)c2C1 [Example 70, 1-(3-(1,3-dimethyl-1H-pyrazol-4-yl)isoquinolin-8-yl)-N-methyl-3-(tetrahydro-2H-pyran-4-yl)-5,6-dihydroimidazo[1,5-a]pyrazine-7(8H)-carboxamide] | 12300 nM | 12 nM
